Measured values taken from patent publication US9718770B2, “Substituted thioureas as heat shock protein 70 inhibitors” (Institute of Pharmacology and Toxicology Academy of …, priority 2013, dated 2017).

What was measured:
BT/Lap^R1.0 = assay: CDI of example compounds and Lapatinib (ATPlite cell survival); assay type: cell-based; settings: compound 5 μM + Lapatinib 1 μM, 72 h; secondary Lapatinib-resistant human breast cancer cells; CDI<1 synergistic
Method: (§1) Cells: (BT474 and SK-BR3 are Lapatinib-sensitive human breast cancer cell strains; BT/LapR and SK/LapR are secondary Lapatinib-resistant human breast cancer cell strains upon Lapatinib stimulation; MDA-MB-361 and MDA-MB-453 are natural Lapatinib-resistant human breast cancer cell strains. BT474, MDA-MB-361, SK-BR3 and MDA-MB-453 are from American Type Culture Collection (ATCC))
(§2) In a 100 mm culture dish full of adherent cells, digestion with 1 ml 0.25% pancreatin (GIBCO) was carried out at 37° C. for 5 min, and the reaction was stopped with 2 ml medium (containing 10% FBS, GIBCO). The cells were dispersed and collected. After cell count, the cells were diluted to a concentration of 1×10^5 cells/ml, and were seeded to a 96-well plate at 50 μl/well, 5000 cell/well, 60 wells in total, PBS instead of cells was added to the wells of the outmost circle, and the incubation was carried out at 37° C. for 24 h for adherence.
(§3) For the sample group, samples to be tested were diluted with DMSO to a final concentration of 5 μM; to control wells, the medium containing the same concentration of solvent corresponding to the compound was added, the concentrations of the compounds were identical in each well, 5 wells in parallel were set for each concentration, 25 μL/well, and 25 μL medium was added to each well (for the combination group, 25 μL Lapatinib was added to reach a final concentration of 1 μM). The incubation was carried out at 37° C. for 72 h.
(§4) To each well, 50 μL ATPlite kit substrate solution was added. The plate was under shaking for 3 min, and was then placed in dark for 10 min. The lysis supernatant was drawn at 100 μL/well, and placed in a luminescent plate. The incubated luminescent plate was placed in an iluminescence apparatus, and the iluminescent value was read.
(§5) Data Processing Cell survival rate (%)=Experimental group RLU/control group RLU×100%
(§6) Coefficient of drug interaction (CDI) is used to evaluate the interaction of two drugs, CDI is calculated in accordance with the following formula: CDI=AB/(A×B)×100%. The calculation is performed according to the number of live cells (luminescent value), if CDI<1, the two drugs have a synergistic effect; if CDI<0.7, the synergistic effect is very significant; if CDI=1, the effect of the two drugs in combination is the sum of the effects of the two drugs; if CDI>1, the two drugs have an antagonistic effect.

SK/Lap^R1.0 = assay: as above; assay type: cell-based; settings: compound 5 μM + Lapatinib 1 μM, 72 h; secondary Lapatinib-resistant human breast cancer cells; CDI<1 synergistic
Method: as §1, §2, §3, §4, §5, §6

Hsp70 ATPase = molecular target: T1, Hsp70 ATPase (Homo sapiens, UniProt P0DMV8); assay: Inhibition of Hsp70 ATPase activity (malachite green); assay type: biochemical; settings: 200 μM; repeated screening carried out twice; Hsp70/Hsp40, 1 mM ATP; read-out: Inhibitory rate (%) on activity of Hsp70 ATPase
T1 construct: made in house; host or cells: E. coli
Method: (1) Protein: Humanized Hsp70, Hsp40, expressed by E. coli.
(2) Sample to be tested: 26 compound solids with different colors and states. Positive drugs AZ (CAS:1054543-47-3) and VER 155008 (CAS: 1134156-31-2) were synthesized in the laboratory.
(4) ATPase Assay buffer: • 0.017% Triton X-100; • 100 mM Tris-HCl; • 20 mM KCl; • 6 mM MgCl2, pH 7.4.
1) 13.08 μl DnaK (0.15 mg/mL, 2.14 μM), 1.96 μl DnaJ (1 mg/mL, 25 μM) were dissolved in 7.96 μl Assay Buffer (0.017% Triton X-100, 100 mM Tris-HCl, 20 mM KCl, and 6 mM MgCl2, pH 7.4), and the resultant solution was added to each well of the 96 well plate;
2) to each well of the 96 well plate, 1 μL sample to be tested (5 mM) or DMSO (solvent) was added, and vortexed with a Vortex agitator for 10 min; and then standing at 37° C. for 30 min;
3) to each well, 1 μL 25 mM ATP was added, to trigger the enzymatic reaction; (in each well, the final reaction volume was 25 μL, the final concentration of DnaK was 1.12 μM, the final concentration of DnaJ was 1.96 μM, the final concentration of DMSO was 4%, the final concentration of Triton X-100 was 0.01%, the final concentration of ATP was 1 mM, and the final concentration of sample to be tested was 200 μM), the enzymatic reaction was carried out at 37° C. for 3 h;
4) 80 μL Malachite green staining solution was then added to each well, and was vortexed gently;
5) 10 μL of 34% citrate sodium was then added immediately, and vortexed gently, to stop the ATP hydrolysis not caused by ATPase;
6) the resultant mixture was mixed thoroughly at 37° C. for 15 min, and OD620 was measured.
The inhibitory rate of Hsp70 ATPase activity is calculated in accordance with the following formula: Inhibitory rate (%)=(DMSO well OD−Experimental well OD)/(DMSO well OD−Blank well OD)×100
Criteria for preliminary screening: during preliminary screening, an example compound is regarded as effective in inhibition as long as its inhibitory rate is above 20% for Hsp70 ATPase at 200 μM.

MDA-MB-453 = assay: CDI of example compounds and Lapatinib (ATPlite cell survival); assay type: cell-based; parameters: key: CDI = AB/(A×B); <1 synergistic; settings: compound 5 μM + Lapatinib 1 μM, 72 h; natural Lapatinib-resistant human breast cancer cells; CDI<1 synergistic
Method: as §1, §2, §3, §4, §5, §6

BT474 = assay: as above; assay type: cell-based; parameters: key: CDI = AB/(A×B); <1 synergistic; settings: compound 5 μM + Lapatinib 1 μM, 72 h; Lapatinib-sensitive human breast cancer cells; CDI<1 synergistic, <0.7 very significant, >1 antagonistic
Method: as §1, §2, §3, §4, §5, §6

MDA-MB-361 = assay: as above; assay type: cell-based; parameters: key: CDI = AB/(A×B); <1 synergistic; settings: compound 5 μM + Lapatinib 1 μM, 72 h; natural Lapatinib-resistant human breast cancer cells; CDI<1 synergistic
Method: as §1, §2, §3, §4, §5, §6

SK-BR3 = assay: as above; assay type: cell-based; parameters: key: CDI = AB/(A×B); <1 synergistic; settings: compound 5 μM + Lapatinib 1 μM, 72 h; Lapatinib-sensitive human breast cancer cells; CDI<1 synergistic
Method: as §1, §2, §3, §4, §5, §6

T1 sequence (P0DMV8 2-641 limits assumed): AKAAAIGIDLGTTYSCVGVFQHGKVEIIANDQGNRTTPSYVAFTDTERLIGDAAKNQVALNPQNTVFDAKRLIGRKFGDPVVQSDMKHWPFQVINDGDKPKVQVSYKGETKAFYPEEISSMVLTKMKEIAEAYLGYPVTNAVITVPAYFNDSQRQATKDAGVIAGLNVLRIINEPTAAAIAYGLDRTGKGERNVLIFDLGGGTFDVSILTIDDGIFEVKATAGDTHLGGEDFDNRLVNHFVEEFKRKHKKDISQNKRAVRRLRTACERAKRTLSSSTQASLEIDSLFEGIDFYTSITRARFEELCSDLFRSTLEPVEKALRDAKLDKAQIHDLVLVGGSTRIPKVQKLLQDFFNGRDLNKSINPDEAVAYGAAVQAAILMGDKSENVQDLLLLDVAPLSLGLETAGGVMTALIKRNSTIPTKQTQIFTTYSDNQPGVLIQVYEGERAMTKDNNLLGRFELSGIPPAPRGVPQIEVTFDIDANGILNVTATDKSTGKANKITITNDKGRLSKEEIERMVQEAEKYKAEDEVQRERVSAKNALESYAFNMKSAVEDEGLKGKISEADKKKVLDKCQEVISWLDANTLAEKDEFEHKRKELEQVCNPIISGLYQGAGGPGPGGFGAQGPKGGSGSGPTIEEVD

SMILES | CDI of example compounds and Lapatinib, BT/Lap^R1.0 (BT/Lap^R1.0) | CDI of example compounds and Lapatinib, SK/Lap^R1.0 (SK/Lap^R1.0) | inhibition at 200 µM (Hsp70 ATPase) [%] | CDI of example compounds and Lapatinib, MDA-MB-453 (MDA-MB-453) | CDI of example compounds and Lapatinib, BT474 (BT474) | CDI of example compounds and Lapatinib, MDA-MB-361 (MDA-MB-361) | CDI of example compounds and Lapatinib, SK-BR3 (SK-BR3)
COc1cc(/C=C/C(=O)NC(CC(C)(C)C)NC(=S)Nc2cccnc2)cc(OC)c1OC (stereo not drawn) [Example 33, (2E)-N-[3,3-dimethyl-1-(3-pyridin-3-ylthioureido)butyl]-3-(3,4,5-trimethoxyphenyl) acrylamide] | 0.97 | 0.88 | 47.1 | 1.19 | 0.81 | 0.89 | 0.96
COc1cc(/C=C/C(=O)NC(CC(C)(C)C)NC(=S)Nc2ccccn2)cc(OC)c1OC (stereo not drawn) [Example 34, (2E)-N-[3,3-dimethyl-1-(3-pyridin-2-ylthioureido)butyl]-3-(3,4,5-trimethoxyphenyl) acrylamide] | 1 | 0.85 | 9.36 | 1.41 | 0.98 | 0.87 | 0.98
COc1cc(/C=C/C(=O)NC(NC(=S)Nc2ccccn2)C(C)C)cc(OC)c1OC (stereo not drawn) [Example 35, (2E)-N-[2-methyl-1-(3-pyridin-2-ylthioureido)propyl]-3-(3,4,5-trimethoxyphenyl) acrylamide] | 1.04 | 0.9 | -6.13 | 1.37 | 0.96 | 0.86 | 0.99
O=C(/C=C/c1ccccc1)NC(NC(=S)Nc1ccccn1)C1CC1 (stereo not drawn) [Example 37, (2E)-N-[cyclopropyl-(3-pyridin-2-ylthioureido)-methyl] cinnamamide] | 1.02 | 1.03 | 1.51 | 1.34 | 0.98 | 0.99 | 0.99
CC(C)CC(NC(=O)/C=C/c1ccccc1)NC(=S)Nc1ccccc1 (stereo not drawn) [Example 38, (2E)-N-[3-methyl-1-(3-phenylthioureido)butyl] cinnamamide] | 0.93 | 0.93 | 2.51 | 1.21 | 0.86 | 1 | 1.16
CC(C)(C)CC(NC(=O)/C=C/c1ccccc1)NC(=S)Nc1ccccc1 (stereo not drawn) [Example 39, (2E)-N-[3,3-dimethyl-1-(3-phenylthioureido)butyl] cinnamamide] | 1.19 | 0.95 | 18.4 | 1.2 | 0.79 | 0.92 | 1.2
